Measured values from ChEMBL document CHEMBL1152013, “()-Phenylahistin: A new mammalian cell cycle inhibitor produced by aspergillus ustus” (Bioorg Med Chem Lett, 1997).

Test system: P388
Test: Inhibitory concentration required for cytotoxic effect against P388 murine leukemia cells
Assay type: functional, cell-based
Details: Mus musculus

Row | SMILES | IC50 [µM]
1 | C=CC(C)(C)c1[nH]cnc1/C=C1\NC(=O)[C@H](Cc2ccccc2)NC1=O | 0.35
2 | C=CC(C)(C)c1[nH]cnc1/C=C1\NC(=O)[C@@H](Cc2ccccc2)NC1=O | 38
